Test results from article PMC12845312, “Hydrazonylthiazole Derivatives as Dual EGFR and ALR2 Inhibitors: Design, Synthesis, and Comprehensive In Vitro and In Silico Evaluation for Potential Anticancer Activity” (Pharmaceuticals, 2025).
Read-outs that look alike come from different tables or passages of the source.

What was measured:
ALR2 = ALR2 (Homo sapiens, UniProt P15121); experiment: In vitro ALR2 inhibition assay (NADPH absorbance, DL-glyceraldehyde substrate); format: biochemical; details: for Ki: ALR2, DL-glyceraldehyde substrate, mean ±SEM (n = 3)
Experimental: The protocol followed earlier steady-state kinetic studies with minor adjustments. Measurements were performed at 37 °C in 10 mM sodium phosphate buffer (pH 7.4) in 1 mL quartz cuvettes (1 cm path length). Each reaction mixture contained 0.11 mM NADPH and DL-glyceraldehyde at final concentrations between 0.071 and 0.376 mM. Test compounds were introduced from DMSO stock solutions, and the total DMSO content was kept below 1% (v/v).
Prior to substrate addition, the enzyme and inhibitor were combined and left on ice for 1 min to allow initial complex formation. The reaction was initiated by adding DL-glyceraldehyde, and the decrease in absorbance at 340 nm (ε340 = 6.22 mM^−1 cm^−1) was recorded for 180 s using a calibrated UV-Vis instrument. […] All values represent the mean of triplicate determinations, and the entire experiment was repeated on three separate days (n = 3). Reaction rates were calculated from the linear segment of each kinetic trace.
For selected compounds, including compound 5, extended kinetic analyses were conducted by varying both substrate and inhibitor levels. The resulting Lineweaver-Burk plots (1/v vs. 1/[S]) were used to interpret the inhibition pattern (Figure 18). Secondary replots were used to extract KI values by linear regression. Data processing and curve fitting were performed in GraphPad Prism (v10.0), and kinetic parameters are expressed as mean ± SEM.

MCF-7 cells = details: cited from earlier work
[1] = tested on: MCF-7 (breast cancer) cells; experiment: MTT cytotoxicity assay in MCF-7 cells; format: cell-based; details: for reduced viability in MCF-7 cells: 10 µM; for IC50: Homo sapiens, MCF7
Experimental: (§1) A549 (ATCC, Manassas, VA, USA) and MCF-7 (ATCC, VA, USA) cells were grown in Dulbecco’s Modified Eagle Medium (DMEM; Wako, Osaka, Japan) containing 10% fetal bovine serum (FBS; Equitech-Bio, Kerrville, TX, USA). Jurkat T-cells (ATCC, VA, USA) were maintained in RPMI-1640 medium (Wako Pure Chemical Industries, Osaka, Japan) supplemented with 10% FBS, while PBMCs (Precision Bioservices, Frederick, MD, USA) were expanded in the same medium supplemented with 10% human AB serum (Gemini, Woodland, CA, USA). Streptomycin was added to all culture media at a final concentration of 89 µg/mL (Meiji Seika Pharma, Tokyo, Japan). All cells were kept at 37 °C under humidified conditions with 5% CO2. For viability measurements, A549 and MCF-7 cells were seeded into 24-well plates, whereas PBMCs were dispensed into 96-well plates (Iwaki, Asahi Glass, Chiba, Japan) at initial densities of 4 × 10^4 cells/mL and 5 × 10^5 cells/mL, respectively. […] The DMSO content was kept constant at 1% in all wells. Cell viability was assessed using the MTT colorimetric assay (Dojindo, Kumamoto, Japan), following established procedures with minor protocol refinements previously reported in the literature.

[2] = tested on: peripheral blood mononuclear cells (PBMCs); experiment: MTT cytotoxicity assay in PBMCs (selectivity); format: cell-based; details: for SI (Selectivity Index): IC50 for PBMC/IC50 for Jurkat cell line; for IC50: PBMC, MTT assay
Experimental: (§2) A549 (ATCC, Manassas, VA, USA) and MCF-7 (ATCC, VA, USA) cells were grown in Dulbecco’s Modified Eagle Medium (DMEM; Wako, Osaka, Japan) containing 10% fetal bovine serum (FBS; Equitech-Bio, Kerrville, TX, USA). Jurkat T-cells (ATCC, VA, USA) were maintained in RPMI-1640 medium (Wako Pure Chemical Industries, Osaka, Japan) supplemented with 10% FBS, while PBMCs (Precision Bioservices, Frederick, MD, USA) were expanded in the same medium supplemented with 10% human AB serum (Gemini, Woodland, CA, USA). Streptomycin was added to all culture media at a final concentration of 89 µg/mL (Meiji Seika Pharma, Tokyo, Japan). All cells were kept at 37 °C under humidified conditions with 5% CO2. For viability measurements, A549 and MCF-7 cells were seeded into 24-well plates, whereas PBMCs were dispensed into 96-well plates (Iwaki, Asahi Glass, Chiba, Japan) at initial densities of 4 × 10^4 cells/mL and 5 × 10^5 cells/mL, respectively. […] Concentrated stock solutions were prepared in dimethyl sulfoxide (DMSO; Wako Pure Chemical Industries) and diluted with culture medium to final assay concentrations ranging from […]. The DMSO content was kept constant at 1% in all wells. Cell viability was assessed using the MTT colorimetric assay (Dojindo, Kumamoto, Japan), following established procedures with minor protocol refinements previously reported in the literature.

EGFR [3] = biological target: T1, EGFR (Homo sapiens, UniProt P00533); experiment: EGFR kinase inhibition (Promega EGFR TK kit, ADP-Glo); format: biochemical
T1 construct: purchased Promega V3831
T1 sequence (P00533 25-1210): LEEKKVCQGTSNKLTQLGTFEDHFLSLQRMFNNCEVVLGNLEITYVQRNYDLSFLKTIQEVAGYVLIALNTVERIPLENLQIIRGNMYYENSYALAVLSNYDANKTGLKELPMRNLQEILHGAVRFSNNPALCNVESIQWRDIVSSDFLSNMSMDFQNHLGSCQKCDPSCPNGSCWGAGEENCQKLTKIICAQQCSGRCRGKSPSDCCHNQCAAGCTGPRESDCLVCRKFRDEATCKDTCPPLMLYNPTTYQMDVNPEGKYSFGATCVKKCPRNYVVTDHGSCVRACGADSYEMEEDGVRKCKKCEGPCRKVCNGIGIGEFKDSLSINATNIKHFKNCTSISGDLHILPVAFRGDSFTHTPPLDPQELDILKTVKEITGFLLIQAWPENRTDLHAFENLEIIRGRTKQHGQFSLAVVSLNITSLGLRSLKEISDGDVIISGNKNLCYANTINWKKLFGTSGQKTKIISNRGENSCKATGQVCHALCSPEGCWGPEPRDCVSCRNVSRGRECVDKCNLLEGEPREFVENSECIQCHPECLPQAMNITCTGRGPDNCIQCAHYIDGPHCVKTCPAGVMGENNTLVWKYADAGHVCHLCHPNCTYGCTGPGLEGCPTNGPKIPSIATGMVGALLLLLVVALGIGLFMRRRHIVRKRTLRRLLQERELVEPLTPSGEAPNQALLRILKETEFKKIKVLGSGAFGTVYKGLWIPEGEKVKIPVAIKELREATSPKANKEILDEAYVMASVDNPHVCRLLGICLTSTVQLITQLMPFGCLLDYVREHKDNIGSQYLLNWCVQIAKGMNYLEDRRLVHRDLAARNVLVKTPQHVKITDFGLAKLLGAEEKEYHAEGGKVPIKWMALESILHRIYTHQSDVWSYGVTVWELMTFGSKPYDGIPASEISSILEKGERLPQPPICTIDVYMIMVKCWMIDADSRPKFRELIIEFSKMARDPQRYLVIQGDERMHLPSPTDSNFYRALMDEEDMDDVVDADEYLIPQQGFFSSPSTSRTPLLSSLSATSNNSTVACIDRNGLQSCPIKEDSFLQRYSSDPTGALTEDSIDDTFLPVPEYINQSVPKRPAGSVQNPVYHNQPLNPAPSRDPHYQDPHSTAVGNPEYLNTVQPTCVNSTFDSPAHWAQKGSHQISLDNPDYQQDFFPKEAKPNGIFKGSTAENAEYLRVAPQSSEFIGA
Experimental: (§3) EGFR kinase activity was monitored using the Promega EGFR TK kit (Cat. No. V3831) at final test concentrations of 1 µM and 10 µM. HER-2 activity was assessed under analogous conditions using the Promega HER-2 TK kit (Cat. No. V9381) at 10 µM, in accordance with earlier studies. For each assay, the enzyme and its substrate were diluted in a mixture containing 95 µL of 2.5× kinase buffer and 15 µL of 100 µM ATP. Reactions were assembled in 384-well plates by dispensing 4 µL of each compound solution (0.1–100 µM) into wells containing 8 µL of the enzyme/ATP/substrate preparation. Plates were incubated for 1.5 h at room temperature, after which ADP formation, reflecting kinase turnover, was quantified using the ADP-Glo™ detection system (Promega, Madison, WI, USA). Luminescence was measured with an Infinite M1000 reader (Tecan, Grödig, Austria).

Jurkat leukemia cells = experiment: MTT cytotoxicity assay in Jurkat cells; format: cell-based; details: Homo sapiens
Experimental: as §2

A549 (NSCLC) cells = experiment: MTT cytotoxicity assay in A549 cells; format: cell-based; details: for reduction in A549 viability: 10 µM; for IC50: Homo sapiens, A549
Experimental: as §1

EGFR [4] = biological target: T1, EGFR; details: read-out: EGFR inhibition IC50 (converted); cited from earlier work
HER-2 = biological target: T2, HER-2 (Homo sapiens, UniProt P04626); experiment: HER-2 kinase inhibition (Promega HER-2 TK kit, ADP-Glo); format: biochemical
T2 construct: purchased Promega V9381
T2 sequence (P04626 23-1255): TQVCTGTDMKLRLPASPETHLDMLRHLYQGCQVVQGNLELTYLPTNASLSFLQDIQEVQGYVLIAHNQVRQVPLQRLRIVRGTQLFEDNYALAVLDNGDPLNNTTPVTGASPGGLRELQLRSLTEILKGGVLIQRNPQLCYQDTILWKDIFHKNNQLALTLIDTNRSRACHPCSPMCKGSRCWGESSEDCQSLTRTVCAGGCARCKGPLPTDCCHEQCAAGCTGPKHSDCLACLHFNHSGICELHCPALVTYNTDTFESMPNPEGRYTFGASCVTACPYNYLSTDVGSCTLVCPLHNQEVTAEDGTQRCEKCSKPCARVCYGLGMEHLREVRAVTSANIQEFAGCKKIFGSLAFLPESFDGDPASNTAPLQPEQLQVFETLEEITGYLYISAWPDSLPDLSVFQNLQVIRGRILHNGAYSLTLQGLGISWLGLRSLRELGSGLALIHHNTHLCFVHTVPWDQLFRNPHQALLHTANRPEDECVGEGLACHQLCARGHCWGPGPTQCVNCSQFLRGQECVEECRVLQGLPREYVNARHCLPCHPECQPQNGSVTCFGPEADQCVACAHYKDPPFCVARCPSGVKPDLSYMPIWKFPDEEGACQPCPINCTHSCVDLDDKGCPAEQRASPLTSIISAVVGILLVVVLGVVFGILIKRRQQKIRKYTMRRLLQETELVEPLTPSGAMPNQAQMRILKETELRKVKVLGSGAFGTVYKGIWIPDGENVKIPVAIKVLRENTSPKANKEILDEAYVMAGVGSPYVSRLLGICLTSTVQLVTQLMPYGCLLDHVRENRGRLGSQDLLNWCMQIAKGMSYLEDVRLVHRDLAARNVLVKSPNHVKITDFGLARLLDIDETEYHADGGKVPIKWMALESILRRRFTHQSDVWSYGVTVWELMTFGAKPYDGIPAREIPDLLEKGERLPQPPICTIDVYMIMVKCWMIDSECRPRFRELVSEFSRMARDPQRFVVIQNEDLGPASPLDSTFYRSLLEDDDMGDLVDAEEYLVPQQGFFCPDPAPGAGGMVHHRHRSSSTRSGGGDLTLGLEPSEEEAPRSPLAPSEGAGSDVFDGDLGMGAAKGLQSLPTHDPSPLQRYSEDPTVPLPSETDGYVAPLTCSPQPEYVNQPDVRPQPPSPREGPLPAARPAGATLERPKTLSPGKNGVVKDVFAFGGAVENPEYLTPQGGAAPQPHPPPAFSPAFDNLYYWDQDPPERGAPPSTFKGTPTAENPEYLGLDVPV
Experimental: as §3

A549 cells [5] = experiment: Apoptosis, Annexin V/ethidium homodimer staining; format: cell-based; details: IC50 concentration, 24 h
Experimental: After exposure, cells were detached using 0.05% trypsin, rinsed twice with 1× binding buffer, and prepared for fluorescence-based apoptotic assessment. The resulting pellet was suspended in a staining mixture consisting of 50 µL of 1× binding buffer, along with 4 µL each of FITC-Annexin V, ethidium homodimer III, and Hoechst 33342. The suspension was incubated for 20 min at room temperature in the dark to ensure proper labeling. Following staining, cells were washed again with binding buffer, fixed in 2% paraformaldehyde, and briefly rinsed with phosphate-buffered saline (PBS). Apoptotic and necrotic populations were visualized and recorded using a Biorevo BZ-9000 fluorescence microscope (Keyence, Osaka, Japan), following procedures adapted from previously reported workflows.

A549 cells [6] = tested on: A549 cells; set-up: method as in doi:10.1016/j.molstruc.2024.139067; details: read-out: IC50 against A549 cells; cited from earlier work
[7] = read-out: IC50 against MCF-7 cells

For Cn1ccnc1/C=N/Nc1nc(-c2ccccc2)cs1 [Compound 1, 1-[(4-Phenyl-1,3-thiazol-2-yl)amino]-2-[(1-methyl-1H-imidazol-2-yl)methylidene]hydrazine], the Ki (ALR2) was 2640 ± 160 nM.

Cn1ccnc1/C=N/Nc1nc(-c2ccc([N+](=O)[O-])cc2)cs1 [Compound 2, 1-[(4-(4-Nitrophenyl)-1,3-thiazol-2-yl)amino]-2-[(1-methyl-1H-imidazol-2-yl)methylidene]hydrazine] gave a Ki (ALR2) of 1830 ± 110 nM.

For Cn1ccnc1/C=N/Nc1nc(-c2ccc(F)cc2)cs1 [Compound 3, 1-[(4-(4-Fluorophenyl)-1,3-thiazol-2-yl)amino]-2-[(1-methyl-1H-imidazol-2-yl)methylidene]hydrazine], the Ki (ALR2) was 440 ± 90 nM.

With Cn1ccnc1/C=N/Nc1nc(-c2ccc(Cl)cc2)cs1 [Compound 4, 1-[(4-(4-Chlorophenyl)-1,3-thiazol-2-yl)amino]-2-[(1-methyl-1H-imidazol-2-yl)methylidene]hydrazine] the Ki (ALR2) was 280 ± 30 nM.

In the case of Cn1c(-c2csc(NN=C3CCCC3)n2)nc2ccccc21 [Compound 4a], the IC50 (MCF-7 cells; [7]) is given as 6300 nM.

For Cn1ccnc1/C=N/Nc1nc(-c2ccc(Br)cc2)cs1 [Compound 5], the “reduced viability in MCF-7 cells” value [1] was 67%, the IC50 [1] was 2780 ± 2850 nM and the “SI (Selectivity Index)” value [2] was 37.39. The IC50 [2] was 72500 ± 14000 nM, the inhibition at 1 µM (EGFR [3]) was 23% and the inhibition at 10 µM (EGFR [3]) was 51%. The Ki (ALR2) was 80 ± 10 nM, the “inhibition profile (Lineweaver–Burk)” value (ALR2; toward DL-glyceraldehyde) was “competitive inhibition profile” and the IC50 (Jurkat leukemia cells) was 1940 ± 650 nM. For the same compound, the “reduction in A549 viability” value (A549 (NSCLC) cells) was ~ 59% and the IC50 (A549 (NSCLC) cells) was 6870 ± 2100 nM.

In the case of C/C(=N\Nc1nc(C)c(/N=N/c2ccc(Cl)cc2)s1)c1cccs1 [Compound 5j], the IC50 (EGFR [4]) is given as 82.8 nM and the IC50 (MCF-7 cells; read-out: IC50 toward MCF-7 cells) is given as 10900 nM.

Cn1ccnc1/C=N/Nc1nc(-c2ccc(C#N)cc2)cs1 [Compound 6, 1-[(4-(4-Cyanophenyl)-1,3-thiazol-2-yl)amino]-2-[(1-methyl-1H-imidazol-2-yl)methylidene]hydrazine] gave a Ki (ALR2) of 210 ± 20 nM.

In the case of CCOC(=O)c1s/c(=N/N=C(\C)c2ccc(Nc3ccnc4cc(Cl)ccc34)cc2)n(C)c1C [Compound 6b], the IC50 (EGFR [4]) is given as 18.9 nM and the IC50 (MCF-7 cells; read-out: IC50 against MCF-7 cell line) is given as 5350 nM.

Cc1ccc(-c2csc(N/N=C/c3nccn3C)n2)cc1 [Compound 7, 1-[(4-(4-Methylphenyl)-1,3-thiazol-2-yl)amino]-2-[(1-methyl-1H-imidazol-2-yl)methylidene]hydrazine] gave a Ki (ALR2) of 280 ± 30 nM.

COc1ccc(-c2csc(N/N=C/c3nccn3C)n2)cc1 [Compound 8, 1-[(4-(4-Methoxyphenyl)-1,3-thiazol-2-yl)amino]-2-[(1-methyl-1H-imidazol-2-yl)methylidene]hydrazine] showed a Ki (ALR2) of 210 ± 20 nM.

Work on Cn1ccnc1/C=N/Nc1nc(-c2ccc(C(F)(F)F)cc2)cs1 [Compound 9, 1-[(4-(4-Trifluoromethylphenyl)-1,3-thiazol-2-yl)amino]-2-[(1-methyl-1H-imidazol-2-yl)methylidene]hydrazine] yielded a Ki (ALR2) of 910 ± 50 nM.

With Cn1ccnc1/C=N/Nc1nc(-c2ccc(S(C)(=O)=O)cc2)cs1 [Compound 10, 1-[(4-(4-Methylsulfonylphenyl)-1,3-thiazol-2-yl)amino]-2-[(1-methyl-1H-imidazol-2-yl)methylidene]hydrazine] the Ki (ALR2) was 240 ± 20 nM.

Cn1ccnc1/C=N/Nc1nc(-c2ccc3ccccc3c2)cs1 [Compound 11, 1-[(4-(Naphthalen-2-yl)-1,3-thiazol-2-yl)amino]-2-[(1-methyl-1H-imidazol-2-yl)methylidene]hydrazine] showed a Ki (ALR2) of 1910 ± 100 nM.

With Cn1ccnc1/C=N/Nc1nc(-c2ccc3c(c2)OCO3)cs1 [Compound 12, 1-[(4-(Benzo[d][1,3]dioxol-5-yl)-1,3-thiazol-2-yl)amino]-2-[(1-methyl-1H-imidazol-2-yl)methylidene]hydrazine] the Ki (ALR2) was 2010 ± 100 nM.

For Cn1ccnc1/C=N/Nc1nc(-c2ccc(-c3cccs3)cc2)cs1 [Compound 13, 1-[(4-(4-(Thiophen-2-yl)phenyl)-1,3-thiazol-2-yl)amino]-2-[(1-methyl-1H-imidazol-2-yl)methylidene]hydrazine], the “reduced viability in MCF-7 cells” value [1] was 69%, the IC50 [1] was 1740 ± 380 nM and the inhibition at 10 µM (HER-2) was 1.89%. The “SI (Selectivity Index)” value [2] was 138.90, the IC50 [2] was 229000 ± 26200 nM and the inhibition at 1 µM (EGFR [3]) was 45%. It also gave an inhibition at 10 µM (EGFR [3]) of 74%, a Ki (ALR2) of 2480 ± 140 nM and an IC50 (Jurkat leukemia cells) of 1650 ± 400 nM. The apoptosis induction (A549 cells [5]) was “triggered apoptosis in A549 cells significantly compared with lapatinib”, the “reduction in A549 viability” value (A549 (NSCLC) cells) was ~ 67% and the IC50 (A549 (NSCLC) cells) was 1330 ± 410 nM.

For O=[N+]([O-])c1ccc(-c2csc(N/N=C/c3c4ccccc4cc4ccccc34)n2)cc1 [Compound A5], the IC50 (A549 cells [6]) is given as 8510 nM, the IC50 (EGFR [4]) is given as 880 nM and the IC50 (MCF-7 cells; [7]) is given as 7000 nM.

With CS(=O)(=O)CCNCc1ccc(-c2ccc3ncnc(Nc4ccc(OCc5cccc(F)c5)c(Cl)c4)c3c2)o1 [Lapatinib, lapatinib, reference compound] the IC50 [1] was 8430 ± 2850 nM, the inhibition at 10 µM (HER-2) was 93% and the IC50 [2] was 9790 ± 2690 nM. For the same compound, the IC50 (Jurkat leukemia cells) was 1350 ± 410 nM, the apoptosis induction (A549 cells [5]) was “highly significant increases vs. untreated control” and the IC50 (A549 (NSCLC) cells) was 18000 ± 5120 nM.
